Test results reported in patent US11739122B2, “Glycopeptide antibiotic compounds, methods for producing the same, and uses thereof” (Academia Sinica, priority 2019, dated 2023).
In brackets after ≈: the same amount, converted by molar mass.

Experiments:
A. baumannii ATCC 19606 [1] = test: MIC, broth microdilution; type: cell-based, Acinetobacter baumannii
Summary of the method: (§1)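 Step one, pick colonies from 18-24 h agar plates into broth until 0.5 McFarland turbidity; step two, dilute to approximately 1×10^8 CFU mL^−1; step three, incubate at 37° C for 18-24 h and score visible growth.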

HEK293T cells = test: Alamar Blue cell viability assay; type: cell-based, human; conditions: up to 100 μgmL^−1; 2 and 24 h
Description: The Alamar Blue (AB) assay, which includes a redox indicator that changes color or emits fluorescence in response to a metabolic activity, was used to assess in vitro mammalian cell cytotoxicity (human embryonic kidney cells (HEK293T)) upon an antibiotic treatment. 2×10^5 cellsmL^−1 were allowed to adhere on 96-well plates overnight at 37° C. in a humidified incubator (5% CO2 atmosphere). Tested compounds were dissolved in 50% DMSO to make 1 mgmL^−1 of a stock solution. Cells were separately aliquoted with 5 μL of a test compound (final concentration: 100 μgmL^−1) and incubated. PBS and 50% DMSO, which was used to dissolve compounds, served as a control. Cell viability was triplicated and assessed at 2 and 24 hour time points for each test compound, on which the measurements followed the manufacturer protocol.

AB ATCC 19606 = test: Minimal bactericidal concentration (MBC); type: cell-based, Acinetobacter baumannii
Description: Minimal Bactericidal Concentration (MBC) Determination
The MBC test is an extension of the MIC examination. MBC was determined by performing subcultures on antibiotic-free agar from both the well where there was no visible growth at the MIC of a tested antibiotic and from the positive control well (with inoculum but without compounds). The plates were incubated at 37° C. for 18-24 hours. The MBC was taken as the lowest concentration of the test compound that results in more than 99.9% reduction of viable bacteria. If MBC was one or two dilutions above a given MIC value (MBC/MIC ratio was less than or equal to four), the antibiotic was considered bactericidal against the test organism.

A. baumannii ATCC 19606 [2] = test: Inner membrane permeabilization, propidium iodide (PI); type: cell-based, Acinetobacter baumannii; conditions: AB
Description: Membrane Permeabilization Assay
The inner membrane and outer membrane permeabilization was determined by propidium iodide (PI) and 1-N-Phenylnaphthylamine (NPN), respectively. MRSA (ATCC 700787) and A. baumannii (ATCC 19606) at mid-log phase were harvested, washed and resuspended in a solution containing 5 mM glucose and 5 mM HEPES at pH 7.2. For the inner membrane permeabilization, 150 μL cell suspension and 50 μL PI (10 μM) were added together and preincubated for 30 minutes or 60 minutes for MRSA or A. baumannii, respectively. For outer membrane permeabilization activity, 150 μL cell suspension and 50 μL NPN (10 μM) were added together and preincubated for 60 minutes. The change of fluorescence intensity was recorded for 8 minutes at 2 minute intervals with excitation and emission wavelength set at 535 nm and 617 nm, respectively for PI and with excitation and emission wavelength set at 350 nm of 420 nm, respectively, for NPN. When 5 μL of a given test compound was added in the solution, the fluorescence intensity was recorded for another 12 minutes.

E. faecalis ATCC 29302 = test: MIC, broth microdilution; type: cell-based; conditions: EF ATCC 29302
Summary of the method: as §1

MRSA ATCC 700787 = test: In vivo efficacy, intraperitoneal MRSA infection; design: species or system mice; conditions: peritoneal fluid, 24 hours post-inoculation, single dose 20 mgkg^−1 IP
Description: In Vivo Efficacy of r6,N-Acyl-Glc Tei Analogs
Female C57BL/6 mice (6 weeks of age; about 16-19 g, 3-5 mice per group) were intraperitoneally inoculated with 300 μL of MRSA ATCC 700787 suspension (about 10^7 CFUmL^−1). For intranasal A. baumannii (ATCC 19606) inoculation, mice were anesthetized, and inoculated intranasally with about 10^7-10^8 CFUmL^−1 A. baumannii in 50 μL of PBS. Treatments were started 1 hour after the bacterial challenge. The dose administration to mice was set as follows: teicoplanin (1) or r6,C8-Tei analog (14) 20 mgkg^−1 was intraperitoneally injected to MRSA-infected mice; amikacin (15 mgkg^−1), teicoplanin (1) (30 mgkg^−1), kanamycin (30 mgkg^−1) or r1,Me2-r6,guanidino-C8 analog (24) (30 mgkg^−1) was intraperitoneally injected to AB-infected mice. To assess bacteraemia, the test animals were sacrificed to collect 1 mL of peritoneal fluid (PF) for MRSA counting or the lungs were lavaged to collect 0.6 mL bronchoalveolar lavage (BAL) fluid for A. baumannii counting.
For MRSA, mice were inoculated intraperitoneally (IP) with 0.3 mL of MRSA ATCC 700787 suspension (about 10^7 CFUmL^−1). […] For the saline treated control, bacterial count was calculated (about 7.5 log CFUmL^−1, FIG. 4A). […]

CCCCCCCC(=O)N[C@H]1[C@H](O[C@@H]2c3ccc(c(Cl)c3)Oc3cc4cc(c3O)Oc3ccc(cc3Cl)C[C@H]3NC(=O)[C@H](N)c5ccc(O)c(c5)Oc5cc(O)cc(c5)[C@H](NC3=O)C(=O)N[C@H]4C(=O)N[C@H]3C(=O)N[C@@H]2C(=O)N[C@H](C(=O)O)c2cc(O)cc(O)c2-c2cc3ccc2O)O[C@H](CO)[C@@H](O)[C@@H]1O [Compound 14, r6,N-octyl-Glc Tei]
MIC (A. baumannii ATCC 19606 [1]; A. baumannii ATCC 19606, Table 3, first figure of cell): 50 µM | MIC (A. baumannii ATCC 19606 [1]; A. baumannii ATCC 19606, Table 3, second figure of cell): 74.22 µg/mL | MIC (A. baumannii ATCC 19606 [1]; AB ATCC 19606, Table 4): 74.22 µg/mL | cytotoxicity to HEK293T cells (HEK293T cells): did not exhibit any observable toxicity | MBC (AB ATCC 19606): 74.22 µg/mL (≈ 49.9 µM) | MBC/MIC (AB ATCC 19606): 1 | inner (cytoplasmic) membrane permeabilization, PI (A. baumannii ATCC 19606 [2]): no activity | MIC (E. faecalis ATCC 29302): 0.25 µg/mL (≈ 0.168 µM) | bacterial load reduced by (MRSA ATCC 700787): 2 log CFUmL^−1
